Active and inactive are the calls of the source.

Assay [1] has as its target T1, Dual specificity protein phosphatase 6 (Rattus norvegicus, UniProt Q64346).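 Note: in vitro confirmatory secondary MKP-3 assay designed to detect irreversible or slow-binding inhibitors; recombinant His-tagged rat MKP-3 acting on the substrate OMFP; inhibitor potency from reduced phosphatase rate.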
T1 sequence (Q64346 whole entry): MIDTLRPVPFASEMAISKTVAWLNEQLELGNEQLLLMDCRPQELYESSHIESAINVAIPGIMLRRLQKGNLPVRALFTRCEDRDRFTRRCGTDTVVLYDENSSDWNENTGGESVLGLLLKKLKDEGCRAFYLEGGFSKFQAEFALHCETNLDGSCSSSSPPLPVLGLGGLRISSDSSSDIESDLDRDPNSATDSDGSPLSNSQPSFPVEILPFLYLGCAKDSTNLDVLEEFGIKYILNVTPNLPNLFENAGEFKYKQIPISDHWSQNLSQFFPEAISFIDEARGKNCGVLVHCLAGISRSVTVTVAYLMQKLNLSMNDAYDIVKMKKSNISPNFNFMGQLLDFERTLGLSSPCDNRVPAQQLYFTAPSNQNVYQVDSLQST

Assay [2] deals with T2, Heat shock factor protein 1 (Mus musculus, UniProt P38532).
T2 sequence (P38532 whole entry): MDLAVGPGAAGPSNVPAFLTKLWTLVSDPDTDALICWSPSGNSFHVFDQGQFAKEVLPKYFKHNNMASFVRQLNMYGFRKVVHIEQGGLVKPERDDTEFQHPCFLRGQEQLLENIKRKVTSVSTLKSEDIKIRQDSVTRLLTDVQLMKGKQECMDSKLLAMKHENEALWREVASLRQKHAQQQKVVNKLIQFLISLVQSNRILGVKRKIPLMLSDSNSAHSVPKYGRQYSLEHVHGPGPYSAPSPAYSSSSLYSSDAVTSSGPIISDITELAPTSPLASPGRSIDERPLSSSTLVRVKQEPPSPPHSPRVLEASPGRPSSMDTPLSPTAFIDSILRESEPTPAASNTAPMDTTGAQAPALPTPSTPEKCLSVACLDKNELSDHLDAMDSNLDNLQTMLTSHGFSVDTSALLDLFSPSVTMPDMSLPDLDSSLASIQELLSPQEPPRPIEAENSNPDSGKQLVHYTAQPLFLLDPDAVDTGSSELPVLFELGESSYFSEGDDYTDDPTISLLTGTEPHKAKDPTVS
The experiment in a line: inhibition of MG132-induced HSE-luciferase signal, confirmation, cell-based, NIH3T3, luminescence, dose retest (AID 2382).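 Note: NIH3T3 fibroblasts with HSF1-driven luciferase reporter stressed by proteasome inhibitor MG132; luminescence from HSF1-driven luciferase expression after 8 hours of MG132 stress.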 Type of assay: functional.

For assay [3], the target named is Beta-galactosidase (Escherichia coli, UniProt Q8VNN2). As to the kind of experiment: beta-galactosidase enzyme inhibitors and activators, dose response, artefact control for CCR6 antagonist project, biochemical, E. coli enzyme, set 3 (AID 504712). Type of assay: functional.
Sequence of Beta-galactosidase (Q8VNN2 whole entry): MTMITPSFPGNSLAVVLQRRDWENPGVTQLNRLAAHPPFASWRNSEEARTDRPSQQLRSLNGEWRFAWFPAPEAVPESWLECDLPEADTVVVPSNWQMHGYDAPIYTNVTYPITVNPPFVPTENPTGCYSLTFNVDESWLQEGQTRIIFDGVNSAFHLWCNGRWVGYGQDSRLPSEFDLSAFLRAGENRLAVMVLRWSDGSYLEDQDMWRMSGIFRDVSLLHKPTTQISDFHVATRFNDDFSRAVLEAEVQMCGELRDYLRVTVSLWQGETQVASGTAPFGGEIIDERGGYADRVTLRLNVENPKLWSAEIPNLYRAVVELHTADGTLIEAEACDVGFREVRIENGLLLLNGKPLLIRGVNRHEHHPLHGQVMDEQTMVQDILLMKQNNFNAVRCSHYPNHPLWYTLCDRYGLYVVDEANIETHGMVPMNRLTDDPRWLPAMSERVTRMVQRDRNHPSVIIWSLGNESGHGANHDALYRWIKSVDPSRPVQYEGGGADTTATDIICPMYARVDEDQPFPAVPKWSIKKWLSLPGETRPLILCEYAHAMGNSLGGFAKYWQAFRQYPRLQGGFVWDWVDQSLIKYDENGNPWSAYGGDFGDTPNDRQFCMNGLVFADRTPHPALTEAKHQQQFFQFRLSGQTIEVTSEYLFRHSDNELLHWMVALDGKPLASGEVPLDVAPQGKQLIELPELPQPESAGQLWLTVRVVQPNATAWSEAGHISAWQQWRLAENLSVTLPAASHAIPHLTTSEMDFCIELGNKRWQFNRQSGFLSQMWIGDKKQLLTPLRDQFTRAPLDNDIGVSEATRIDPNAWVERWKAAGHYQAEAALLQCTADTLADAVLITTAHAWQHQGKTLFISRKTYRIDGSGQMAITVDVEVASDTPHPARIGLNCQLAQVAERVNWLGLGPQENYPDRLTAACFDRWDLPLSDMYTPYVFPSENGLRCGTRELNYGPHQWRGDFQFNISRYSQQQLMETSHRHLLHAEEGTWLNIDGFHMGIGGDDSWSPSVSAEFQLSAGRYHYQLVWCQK
Assay [4] concerns the target Heat shock protein HSP 90-alpha (Homo sapiens, UniProt P07900). Type of assay: functional, organism-based.
Assay [5] addresses T3, Histone-lysine N-methyltransferase NSD2 (Homo sapiens, UniProt O96028).
T3 sequence (O96028 whole entry): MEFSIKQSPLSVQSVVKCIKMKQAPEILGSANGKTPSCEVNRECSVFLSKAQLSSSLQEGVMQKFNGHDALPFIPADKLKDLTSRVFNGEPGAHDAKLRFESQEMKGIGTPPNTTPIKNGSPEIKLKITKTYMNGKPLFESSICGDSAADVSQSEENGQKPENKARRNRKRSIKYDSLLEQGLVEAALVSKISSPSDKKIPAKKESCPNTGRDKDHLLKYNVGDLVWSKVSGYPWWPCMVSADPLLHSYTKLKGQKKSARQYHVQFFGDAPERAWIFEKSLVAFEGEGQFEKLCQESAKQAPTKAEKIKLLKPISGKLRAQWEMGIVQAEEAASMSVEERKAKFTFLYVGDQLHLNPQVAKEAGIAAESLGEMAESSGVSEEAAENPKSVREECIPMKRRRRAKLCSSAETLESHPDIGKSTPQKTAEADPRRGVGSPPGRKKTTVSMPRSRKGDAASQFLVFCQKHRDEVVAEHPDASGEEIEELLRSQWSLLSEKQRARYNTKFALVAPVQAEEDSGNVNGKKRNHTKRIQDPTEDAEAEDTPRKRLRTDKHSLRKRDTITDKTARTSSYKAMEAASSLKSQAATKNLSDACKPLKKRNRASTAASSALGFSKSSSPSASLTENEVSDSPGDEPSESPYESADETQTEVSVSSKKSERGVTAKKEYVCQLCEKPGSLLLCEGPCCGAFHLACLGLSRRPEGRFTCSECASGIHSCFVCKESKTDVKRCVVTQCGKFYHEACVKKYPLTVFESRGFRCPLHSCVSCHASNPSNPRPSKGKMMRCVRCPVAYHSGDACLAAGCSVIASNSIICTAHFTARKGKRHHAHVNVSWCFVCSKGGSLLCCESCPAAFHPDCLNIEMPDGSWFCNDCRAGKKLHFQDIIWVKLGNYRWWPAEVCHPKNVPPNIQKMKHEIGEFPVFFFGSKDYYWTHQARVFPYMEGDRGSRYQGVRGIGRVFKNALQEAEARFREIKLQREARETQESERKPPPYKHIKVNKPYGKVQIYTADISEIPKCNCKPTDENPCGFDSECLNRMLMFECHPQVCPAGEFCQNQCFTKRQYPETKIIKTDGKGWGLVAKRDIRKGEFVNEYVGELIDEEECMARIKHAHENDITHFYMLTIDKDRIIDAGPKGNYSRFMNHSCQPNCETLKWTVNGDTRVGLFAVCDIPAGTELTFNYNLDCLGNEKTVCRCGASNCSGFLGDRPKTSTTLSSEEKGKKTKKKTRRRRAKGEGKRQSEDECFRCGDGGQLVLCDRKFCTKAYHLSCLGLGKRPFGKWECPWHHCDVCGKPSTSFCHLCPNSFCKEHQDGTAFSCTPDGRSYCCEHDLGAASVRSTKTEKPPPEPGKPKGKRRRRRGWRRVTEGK
Type of assay: biochemical.

Assay [6] is described as follows: Luminescence Cell-Based Dose Retest to Confirm Inhibitors of Cancer Stem Cells. [Related pubchem assays (depositor defined):AID2717, AID2721]. Type of assay: functional. To be noted: Homo sapiens.
For assay [7], the target named is Proto-oncogene tyrosine-protein kinase receptor Ret (Homo sapiens, UniProt P07949). Type of assay: functional.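 Note: measured within a kinome-wide profiling panel, RET as the panel member.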
Sequence of Proto-oncogene tyrosine-protein kinase receptor Ret (P07949 whole entry): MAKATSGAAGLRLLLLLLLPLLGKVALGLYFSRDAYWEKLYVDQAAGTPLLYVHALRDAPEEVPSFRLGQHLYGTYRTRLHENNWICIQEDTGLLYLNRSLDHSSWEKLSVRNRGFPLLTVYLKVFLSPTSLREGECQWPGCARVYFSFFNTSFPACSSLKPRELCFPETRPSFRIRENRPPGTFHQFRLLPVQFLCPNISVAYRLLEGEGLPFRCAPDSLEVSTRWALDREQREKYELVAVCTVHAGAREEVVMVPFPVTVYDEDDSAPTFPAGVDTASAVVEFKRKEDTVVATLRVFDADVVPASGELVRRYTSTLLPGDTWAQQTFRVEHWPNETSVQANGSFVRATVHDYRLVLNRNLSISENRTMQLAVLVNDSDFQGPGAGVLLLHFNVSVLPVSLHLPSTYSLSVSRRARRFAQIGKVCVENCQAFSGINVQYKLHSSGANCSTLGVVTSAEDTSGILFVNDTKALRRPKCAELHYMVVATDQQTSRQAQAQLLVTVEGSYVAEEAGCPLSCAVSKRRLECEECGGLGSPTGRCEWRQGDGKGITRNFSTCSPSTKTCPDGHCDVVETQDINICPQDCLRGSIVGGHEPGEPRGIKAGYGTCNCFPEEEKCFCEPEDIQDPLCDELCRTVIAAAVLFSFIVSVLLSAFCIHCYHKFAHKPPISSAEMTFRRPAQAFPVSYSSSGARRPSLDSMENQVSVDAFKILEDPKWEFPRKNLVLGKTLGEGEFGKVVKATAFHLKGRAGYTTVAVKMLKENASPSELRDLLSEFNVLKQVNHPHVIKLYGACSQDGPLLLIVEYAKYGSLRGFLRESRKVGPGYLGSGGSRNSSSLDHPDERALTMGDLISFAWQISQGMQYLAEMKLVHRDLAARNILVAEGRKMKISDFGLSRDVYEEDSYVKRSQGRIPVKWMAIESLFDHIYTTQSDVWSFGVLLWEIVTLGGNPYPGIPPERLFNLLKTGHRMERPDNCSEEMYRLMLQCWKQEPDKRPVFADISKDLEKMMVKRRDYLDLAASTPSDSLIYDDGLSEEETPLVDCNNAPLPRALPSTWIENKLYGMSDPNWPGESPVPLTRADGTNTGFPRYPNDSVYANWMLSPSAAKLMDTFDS
In assay [8] the target is Activin receptor type-1 (Homo sapiens, UniProt Q04771). As to the kind of experiment: Navigating the Kinome. Panel member name: ACVR1. Type of assay: functional.
Sequence of Activin receptor type-1 (Q04771 whole entry): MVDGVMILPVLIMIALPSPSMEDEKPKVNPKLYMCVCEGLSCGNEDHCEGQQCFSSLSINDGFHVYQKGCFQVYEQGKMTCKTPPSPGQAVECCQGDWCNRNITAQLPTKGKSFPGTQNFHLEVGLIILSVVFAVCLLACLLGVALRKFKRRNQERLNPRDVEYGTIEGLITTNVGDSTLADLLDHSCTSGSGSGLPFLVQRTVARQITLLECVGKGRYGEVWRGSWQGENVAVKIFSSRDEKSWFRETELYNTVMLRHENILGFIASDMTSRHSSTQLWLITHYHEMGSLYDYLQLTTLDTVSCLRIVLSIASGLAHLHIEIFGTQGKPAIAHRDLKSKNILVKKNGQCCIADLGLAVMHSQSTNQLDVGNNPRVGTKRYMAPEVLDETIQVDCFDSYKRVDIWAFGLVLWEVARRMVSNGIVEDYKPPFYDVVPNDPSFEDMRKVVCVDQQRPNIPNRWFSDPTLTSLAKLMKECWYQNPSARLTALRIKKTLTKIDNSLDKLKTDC
In assay [9] the target is BDNF/NT-3 growth factors receptor (Homo sapiens, UniProt Q16620). Type of assay: functional.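 Note: NTRK2 measured as one member of a broad kinome-wide kinase profiling panel.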
Sequence of BDNF/NT-3 growth factors receptor (Q16620 whole entry): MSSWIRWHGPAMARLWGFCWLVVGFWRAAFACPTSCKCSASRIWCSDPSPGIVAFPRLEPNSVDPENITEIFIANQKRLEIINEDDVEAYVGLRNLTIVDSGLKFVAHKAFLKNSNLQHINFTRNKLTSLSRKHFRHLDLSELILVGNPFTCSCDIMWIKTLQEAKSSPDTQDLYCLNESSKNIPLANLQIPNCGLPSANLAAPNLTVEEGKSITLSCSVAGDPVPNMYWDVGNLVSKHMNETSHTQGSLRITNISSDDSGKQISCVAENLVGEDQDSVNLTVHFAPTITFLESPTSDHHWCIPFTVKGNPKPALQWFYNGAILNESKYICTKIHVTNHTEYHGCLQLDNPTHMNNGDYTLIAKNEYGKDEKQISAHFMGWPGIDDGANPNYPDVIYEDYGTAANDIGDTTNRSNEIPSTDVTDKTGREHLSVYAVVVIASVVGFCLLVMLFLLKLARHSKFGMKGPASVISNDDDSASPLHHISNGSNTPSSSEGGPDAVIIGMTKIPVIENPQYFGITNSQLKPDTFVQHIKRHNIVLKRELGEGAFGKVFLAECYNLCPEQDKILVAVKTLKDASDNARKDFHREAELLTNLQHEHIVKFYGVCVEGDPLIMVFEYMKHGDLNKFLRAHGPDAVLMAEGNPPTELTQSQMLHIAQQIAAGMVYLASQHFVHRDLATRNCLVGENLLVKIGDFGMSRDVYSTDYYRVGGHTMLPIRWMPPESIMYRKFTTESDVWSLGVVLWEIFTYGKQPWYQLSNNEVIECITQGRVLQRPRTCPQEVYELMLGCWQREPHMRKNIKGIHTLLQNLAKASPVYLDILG
In assay [10] the target is Receptor-type tyrosine-protein kinase FLT3 (Homo sapiens, UniProt P36888). Type of assay: functional.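 Note: FLT3 was tested as one member of a kinome-wide kinase panel.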
Sequence of Receptor-type tyrosine-protein kinase FLT3 (P36888 whole entry): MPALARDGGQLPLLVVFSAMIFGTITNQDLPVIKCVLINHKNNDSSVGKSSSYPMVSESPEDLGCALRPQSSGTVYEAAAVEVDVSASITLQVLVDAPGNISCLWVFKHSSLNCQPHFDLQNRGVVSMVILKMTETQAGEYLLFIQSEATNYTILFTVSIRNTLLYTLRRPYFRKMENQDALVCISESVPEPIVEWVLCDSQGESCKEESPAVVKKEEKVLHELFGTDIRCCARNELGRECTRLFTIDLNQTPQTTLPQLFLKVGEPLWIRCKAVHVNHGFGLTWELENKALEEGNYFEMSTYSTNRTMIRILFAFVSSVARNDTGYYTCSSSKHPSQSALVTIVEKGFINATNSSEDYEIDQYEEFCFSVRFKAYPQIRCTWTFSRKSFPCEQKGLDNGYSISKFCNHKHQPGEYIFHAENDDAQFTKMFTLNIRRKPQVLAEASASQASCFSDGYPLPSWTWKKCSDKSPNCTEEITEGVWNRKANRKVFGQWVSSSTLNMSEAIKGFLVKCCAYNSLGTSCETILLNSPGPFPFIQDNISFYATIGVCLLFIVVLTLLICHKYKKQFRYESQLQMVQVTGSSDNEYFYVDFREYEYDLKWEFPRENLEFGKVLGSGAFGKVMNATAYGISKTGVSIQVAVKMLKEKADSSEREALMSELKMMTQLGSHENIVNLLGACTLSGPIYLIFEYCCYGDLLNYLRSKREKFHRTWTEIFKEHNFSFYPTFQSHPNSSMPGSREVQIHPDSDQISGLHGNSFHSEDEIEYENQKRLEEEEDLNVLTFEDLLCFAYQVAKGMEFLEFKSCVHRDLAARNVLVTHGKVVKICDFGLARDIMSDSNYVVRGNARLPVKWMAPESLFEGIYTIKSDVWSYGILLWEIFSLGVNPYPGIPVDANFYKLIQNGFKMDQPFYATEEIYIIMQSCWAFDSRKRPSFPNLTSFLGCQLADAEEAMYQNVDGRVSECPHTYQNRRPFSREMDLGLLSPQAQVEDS
Assay [11] deals with Dual specificity mitogen-activated protein kinase kinase 2 (Homo sapiens, UniProt P36507). The experiment in a line: Navigating the Kinome. Panel member name: MAP2K2. Type of assay: functional.
The target in assay [12] is cAMP-dependent protein kinase catalytic subunit alpha (Homo sapiens, UniProt P17612). Type of assay: functional.
Assay [13] concerns the target Ephrin type-A receptor 2 (Homo sapiens, UniProt P29317). Type of assay: functional.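 Note: EPHA2 tested as one member of a kinome-wide kinase panel.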
For assay [14], the target named is Homeodomain-interacting protein kinase 4 (Homo sapiens, UniProt Q8NE63). Type of assay: functional.
Sequence of Homeodomain-interacting protein kinase 4 (Q8NE63 whole entry): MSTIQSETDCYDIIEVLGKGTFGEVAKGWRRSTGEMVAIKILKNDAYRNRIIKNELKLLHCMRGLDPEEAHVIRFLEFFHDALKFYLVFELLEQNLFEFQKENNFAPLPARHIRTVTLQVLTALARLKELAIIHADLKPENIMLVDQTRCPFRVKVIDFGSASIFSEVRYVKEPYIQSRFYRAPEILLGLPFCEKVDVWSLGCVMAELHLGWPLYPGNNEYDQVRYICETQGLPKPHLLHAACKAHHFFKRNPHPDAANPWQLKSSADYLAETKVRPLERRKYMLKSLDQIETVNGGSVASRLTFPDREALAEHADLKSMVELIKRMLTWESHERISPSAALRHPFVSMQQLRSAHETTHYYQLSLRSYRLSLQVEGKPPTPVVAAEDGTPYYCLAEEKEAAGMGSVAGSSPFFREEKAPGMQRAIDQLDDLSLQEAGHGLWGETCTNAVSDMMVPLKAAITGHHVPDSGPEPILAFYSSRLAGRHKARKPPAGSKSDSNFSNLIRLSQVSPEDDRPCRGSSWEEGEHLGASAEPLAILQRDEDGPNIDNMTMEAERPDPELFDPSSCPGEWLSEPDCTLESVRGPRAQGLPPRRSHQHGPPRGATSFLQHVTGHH

For orientation: IC50 means the point on the concentration scale where inhibition reaches its midpoint. Regarding `COc1cccc2c1NC(C(=O)O)C1CC=CC21` (centres undefined), in [1], the IC50 is 14 µM (active).
By EC50 is commonly meant the concentration at which the effect is half-maximal. As to `CCc1ccc(S(=O)(=O)/N=C2\C=C(Nc3ccc(O)cc3)C(=O)c3ccccc32)cc1`, in assay [2], the EC50 was 1.16 µM (active). For the same compound, the IC50 in assay [3] is 41.3 µM (inactive).
One may read the AC50 as the concentration at which the activity in the assay is half-maximal. Consider `O=C1/C(=C\c2cccc(O)c2O)SC(=S)N1Cc1ccccc1`, for which the values for the AC50 in [4], in assay [5] and in assay [6] were 13.4 µM (active), 1.26 µM (active) and 1.67 µM (active), respectively.
As for `CC(C)(C)c1cc[n+](C2=C([N-]S(=O)(=O)c3cccs3)C(=O)c3ccccc3C2=O)cc1`, in [5], the AC50 was 3.18 µM (active).
Broadly, the Ki is the dissociation constant of the complex between target and ligand, obtained from inhibition or displacement. `COc1c(-c2nc3ccccc3[nH]2)c(O)cc2oc(C)cc(=O)c12`: the Ki in assay [7] was 1.26 µM (active); in assay [8] it was 1.26 µM (active); in [9], 3.16 µM (active); in [10] it was 0.398 µM (active); in [11] it was 0.398 µM (active); in assay [12] it was 0.501 µM (active).
For the compound `COC(=O)c1c(N)nc2ccccn12`, the Ki in assay [7] is 63.1 µM (active); in assay [8], 50.1 µM (active); in assay [12], 10 µM (active).
In the case of `Cc1ccc(F)c(NC(=O)Nc2ccc(-c3cccc4[nH]nc(N)c34)cc2)c1` [LINIFANIB], the Ki was 2.51 µM (active) in assay [13], 0.631 µM (active) in assay [9] and 0.0398 µM (active) in assay [14].
